Where two headings read alike, the source gives them in different places.
Tests used:
A549 cells = assay: Growth inhibition of A549 human lung carcinoma cells (sulforhodamin-B method); format: cell-based
Experimental: (§1) The tumor growth inhibiting activity of the substances was determined on human tumor cells in standardized in vitro test systems. In the screening tests, the substances gave IC50-values in a concentration range of 0.1 nM to 10 μM.
(§2) A549 cells derived from a human lung carcinoma plated at a density of 20,000 cells/ml in 12-well plastic dishes. Cultivation occurred in Richters IMEM-ZO nutrient medium with 5% foetal calf serum (FCS) in a tissue culture incubator with a gas mixture of 5% CO2 and 95% air at a temperature of 37° C. One day after plating, the culture medium was aspirated from the cells and replaced by fresh medium which contained the respective concentrations of the test substances. For the individual concentrations and the controls without test substances, three-fold batches were done for each. Three days after the beginning of treatment, the medium was again renewed with the test compounds. After four days of substance incubation, the test was ended and the protein amount in the individual wells was determined with the sulforhodamin-B-method (according to P. Skehan et al.: New Colorimetric Cytotoxicity Assay for Anticancer-Drug Screening. J. Natl. Cancer Inst. 82: 1107-1112, 1990). The IC50-values (defined as that concentration in which the cell growth was inhibited by 50%) was taken from the dose-response curves and given as a comparative measurement for the activity of the test compounds.

HepG2 cells = assay: Growth inhibition of HepG2 human liver carcinoma cells (sulforhodamin-B method); format: cell-based
Experimental: as §1
as §2, with “HepG2” for “A549”, “liver” for “lung”, “[…]” for “20,000”, “six” for “four”

THP-1 cells = assay: Growth inhibition of THP-1 human monocytic leukemia cells (WST-1 reagent); format: cell-based
Experimental: as §1
THP-1 cells derived from a human monocytic leukemia plated at a density of 200,000 cells/ml in 96-well plastic dishes. Cultivation occurred in RPMI 1640 nutrient medium with 10% foetal calf serum (FCS) in a tissue culture incubator with a gas mixture of 5% CO2 and 95% air at a temperature of 37° C. For the individual concentrations and the controls without test substances as well as for the background with nutrient medium but without cells, three-fold batches were done for each. After four days of substance incubation 20 μl WST-1 reagent (Boehringer Mannheim) was respectfully pipetted in each individual well. After 30 to 60 minute incubation in the tissue culture incubator at 37° C. and 5% CO2, the light extinction was measured in an ELISA reader at 450 nm wave length. The backgrounds were each subtracted from the typical measured valves. The IC50-values (defined as that concentration in which the cell growth was inhibited by 50%) was taken from the dose-response curves and given as a comparative measurement for the activity of the test compounds.

[1] = system: freshly isolated lymphocytes; assay: Immunosuppressing activity on freshly isolated spleen lymphocytes (flow cytometry, vital cells); format: cell-based; details: Lymphocyte, 48 h; Swiss mouse spleen lymphocytes, 2 days incubation, percentage of vital cells by flow-through cytometer
Source text: Many anti-tumor agents have not only a cytotoxic effect on tumor cells, but also on the blood cell system. This leads to a weakening of the immune defense, which can, in turn, be specifically employed to suppress the rejection reaction after an organ transplantation for example. Also use of the main compounds, optionally in combination with other immunological diseases (for example, psoriasis or autoimmune diseases) seems likely. In order to test the possibility for a therapeutic use in illnesses of this type, the substance activity was tested on freshly isolated lymphocytes as follows:
The spleen of a Swiss mouse served as a lymphocyte source. The lymphocyte population was isolated from the spleen cell […] suspension over a ficoll gradient and taken up in IMEM-ZO culture medium with 0.1% dextran 70,000 and 2% foetal calf serum. The cells were plated at a density of ca. 500,000 cells/well/ml in a 12-well plate, 1 ml doubly concentrated test substance solution was pipetted per well and this was subsequently incubated in a tissue culture incubator at 37° C. and 5% CO2. After 2 days, a 1 ml-aliquot with 5 μl of the fluorescent dye solutions propidium iodide (8 mg/ml) and 3,3′-dihexyloxacarbocyanin iodide (40 μg/ml) each was added per well, and incubated for 3 minutes at room temperature. Subsequently, 10,000 cells per each sample were measured on a flow-through cytometer and the percentage amount of vital cells in the population was determined. By means of the dose-response curves, IC50-values were calculated which were also employed in the following Tables for the characterization of the individual substances: […]

[2] = 96 h, A549 cells, four days of substance incubation, protein amount by sulforhodamin-B, read-out: IC50-value
[3] = 144 h, HepG2 cells, six days of substance incubation, protein amount by sulforhodamin-B, read-out: IC50-value

| melting point | other results | SMILES |
| --- | --- | --- |
| 194 to 196 °C |  | O=C(C=Cc1cccnc1)NCCCCNC(=O)[C@@H]1C[C@H]1c1ccccc1 (relative stereo) [Substance 250, N-[4-(trans-2-phenyl-cyclopropyl-carbonylamino)-butyl]-3-pyridin-3-yl-acrylamide] |
| 145 to 147 °C |  | O=C(C=Cc1cccnc1)NCCCCCC(O)(c1ccccc1)c1ccccc1 [Substance 31, N-(6-hydroxy-6,6-diphenyl-hexyl)-3-pyridin-3-yl-acrylamide] |
| 91 to 93 °C |  | Cc1ccc(S(=O)(=O)NCCCCCCNC(=O)C=Cc2cccnc2)cc1 [Substance 310, 3-Pyridin-3-yl-N-[6-(tosylamino)-hexyl]-acrylamide] |
| 89 to 91 °C | IC50 (A549 cells; [2]): 1 µM | CN(CCCCNC(=O)C=Cc1cccnc1)CCN(C)C(c1ccccc1)c1ccccc1 [Substance 193, N-(4-{[2-(benzhydryl-methyl-amino)-ethyl]-methyl-amino}-butyl)-3-pyridin-3-yl-acrylamide] |
| 157 to 159 °C | IC50 (HepG2 cells; [3]): 0.04 µM | O=C(C=Cc1cccnc1)NCCCCC(O)(c1ccccc1)c1ccccc1 [Substance 27, N-(5-hydroxy-5,5-diphenyl-pentyl)-3-pyridin-3-yl-acrylamide] |
| 120 to 121 °C | IC50 (THP-1 cells; 96 h, THP-1 cells, four days of substance incubation, WST-1, extinction at 450 nm, read-out: IC50-value): 0.0002 µM; IC50 (THP-1 cells; THP-1, monocytic leukemia, methods of point 1, read-out: IC50-values): 0.0002 µM; IC50 [1]: 0.0005 µM; IC50 (HepG2 cells; HepG2, hepatocelluar carcinoma, methods of point 1, read-out: IC50-values): 0.0005 µM; IC50 (A549 cells; A549, lung carcinoma, methods of point 1, read-out: IC50-values): 0.002 µM | O=C(C=Cc1cccnc1)NCCCCC=C(c1ccccc1)c1ccccc1 [Substance 120, N-(6,6-diphenyl-hex-5-enyl)-3-pyridin-3-yl-acrylamide] |
| 171 to 172 °C | IC50 [1]: 0.08 µM; IC50 (A549 cells; [2]): 2 µM | O=C(C=Cc1cccnc1)NCCCCNC(=O)C(c1ccccc1)c1ccccc1 [Substance 247, N-(4-diphenylacetylamino-butyl)-3-pyridin-3-yl-acrylamide] |
| 183 °C | IC50 [1]: 0.0003 µM; IC50 (HepG2 cells; [3]): 0.008 µM | O=C(C=Cc1cccnc1)NCCCCn1cnc(-c2ccccc2)c1-c1ccccc1 [Substance 63, N-[4-(4,5-diphenyl-imidazol-1-yl)-butyl]-3-pyridin-3-yl-acrylamide] |
| 123 to 125 °C |  | O=C(C=Cc1cccnc1)NCCCCNC(=O)N(c1ccccc1)c1ccccc1 [Substance 268, N-[4-(3,3-diphenyl-ureido)-butyl]-3-pyridin-3-yl-acrylamide] |
| 97 to 99 °C |  | O=C(C=Cc1cccnc1)NCCCCCCNC(=O)N1c2ccccc2CCc2ccccc21 [Substance 295, N-[6-(10,11-dihydro-dibenzo[b,f]azepin-5-yl-carbonylamino)-hexyl]-3-pyridin-3-yl-acrylamide] |
| 139 to 140 °C |  | O=C(C=Cc1cccnc1)NCCCCCCCC(O)(c1ccccc1)c1ccccc1 [Substance 41, N-(8-hydroxy-8,8-diphenyloctyl)-3-pyridin-3-yl-acrylamide] |
| 61 to 63 °C | IC50 (A549 cells; [2]): 8 µM | O=C(C=Cc1cccnc1)NCCCCCCCc1ccccc1 [Substance 3, N-(7-phenyl-heptyl)-3-pyridin-3-yl-acrylamide] |
| 92 to 94 °C |  | O=C(C=Cc1cccnc1)NCCCCN1CCc2ccccc2C(c2ccccc2)C1 (centres unmarked) [Substance 207, N-[4-(1-phenyl-1,2,4,5-tetrahydrobenzo[d]azepin-3-yl)-butyl]-3-pyridin-3-yl-acrylamide] |
| 105 to 107 °C |  | O=C(C=Cc1cccnc1)NCCCCCCNC(=O)N(c1ccccc1)c1ccccc1 [Substance 270, N-[6-(3,3-diphenyl-ureido)-hexyl]-3-pyridin-3-yl-acrylamide] |
| 101 to 102 °C | IC50 (HepG2 cells; [3]): 0.2 µM; IC50 (A549 cells; [2]): 0.4 µM | O=C(C=Cc1cccnc1)NCCCCNC(c1ccccc1)c1ccccc1 [Substance 187, N-[4-(benzhydryl-amino)-butyl]-3-pyridin-3-yl-acrylamide] |
